Read-outs that look alike come from different tables or passages of the source.
Key:
[1] = tested on: M109 cells, a mouse lung carcinoma line; assay: In vitro cytotoxicity / growth rate of M109 cells, methylene blue staining, 72 hour continuous exposure; assay type: cell-based; details: read-out: IC50 Values for M109 tumor cells after 72 hour culture with continuous exposure to formulation
Procedure: IC50 values were taken as the drug concentration which caused a 50% inhibition of the control growth rate (IC50), as described in Example 6.
Upon completion of the assay, the cells were fixed and evaluated using the methylene blue staining assay.
In the assay, 1500 M109 mouse carcinoma cells from exponentially growing cultures in 200 μl aliquots (RPMI-1640 medium+10% fetal bovine serum) were plated onto 96 well flat-bottom microtiter plates. […] For each 10-fold increase in drug concentration, four drug concentration points were tested. Each test was performed in triplicate wells and in two parallel plates. The cells were treated continuously for 72 hours.
After the 72 hour treatment period, the cultures were fixed by the addition of 50 μl 2.5% glutaraldehyde to each well for 10 minutes. […] The dye was extracted with 200 μl 0.1 N HCl for 60 minutes at 37° C. and the optical density was determined using a microplate spectrophotometer.
The cell number determined by counting cells with a hemocytometer correlated well with the spectrophotometric absorbance. The initial cell plating density was chosen to ensure a linear relationship between cell number and absorbance at the end of the study. In each study, six wells were fixed before drug was added to determine the initial average absorbance. […]
The growth rate was calculated as GR=(ln 2/DT). […]

[2] = In vivo pharmacokinetics in rats after single bolus intravenous injection; details: time points greater than about 5 minutes
Procedure: The in vivo pharmacokinetics of the liposomes containing cholesterol and the cholesterol-free liposome formulation was determined in rats.
Eight rats were randomized into treatment groups as follows:
A single intravenous injection of the test formulation was administered as a bolus dose. Blood samples were taken from each animal at the following times after injection: 30 seconds, 15 minutes, 30 minutes, 1 hour, 2 hours, 4 hours, 8 hours, 24 hours, 48 hours, 72 hours and 96 hours. […] A 200 mM iodoacetamine solution was prepared by placing 199.3 mg of iodoacetamide in 5.1 mL of 7.5% EDTA. 15 μL of the 200 mM iodoacetamide solution was placed in each 1 μL of blood sample.
The final volume was adjusted to 1 mL with methanol. […] The samples were spun down at 3,000 rpm for 10 minutes at room temperature. 300 μL of supernatant was transferred to HPLC vials containing 300 μL insert for injection.
100 μL of plasma sample was denatured with 900 μL of methanol followed by centrifugation for 10 minutes at 3,000 rpm. […]
Peak area and retention times were determined by the PE-Nelson Turbochrom (Version 4.1) system. […] The linearity of the method was evaluated suing standard responses from six concentration levels. […] The precision and accuracy of the method were evaluated from the back-calculated concentrations of the standards as well as from the quality control samples.

Structure (SMILES): CO[C@@]12[C@H](COC(N)=O)C3=C(C(=O)C(C)=C(N)C3=O)N1C[C@@H]1N[C@@H]12 [free MMC, mitomycin C]
- IC50 ([1]; Cysteine Concentration 0): 0.285 ± 0.092 µM
- IC50 ([1]; Cysteine Concentration 1000 μM): 0.3 ± 0.071 µM
- dose remaining in the blood [2]: Virtually none

Source: patent US7276248B2, “Conjugate having a cleavable linkage for use in a liposome” (ALZA Corporation, priority 1999, dated 2007)
